System: 994946-033-R-J1-PDC complex spheroid viability
Assay: Anticancer human tumor 994946-033-R-J1-PDC patient-derived melanoma cell line growth inhibition [POLQ]
Details: for IC50: curve of first compound; for viability, T/C: stronger effect = lower value; active means viability on the fitted dose curve at most 10% of control; inactive means the rest
Method in brief: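 Growth inhibition in 3D: complex spheroids (tumor PDC, HUVEC, MSC) treated with POLQ inhibitor combinations; where Cmax unknown, highest tested concentration 10 microM, except SN-38 at 1 microM.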

[1] = second compound 0.0316 µM, first compound 0.0316 µM
[2] = second compound 0.0316 µM, first compound 0.1 µM
[3] = second compound 0.0316 µM, first compound 0.316 µM
[4] = second compound 0.0316 µM, first compound 1 µM
[5] = second compound 0.0316 µM, first compound 3.16 µM
[6] = second compound 0.0316 µM, first compound 10 µM
[7] = second compound 0.1 µM, first compound 0.0316 µM
[8] = second compound 0.1 µM, first compound 0.1 µM
[9] = second compound 0.1 µM, first compound 0.316 µM
[10] = second compound 0.1 µM, first compound 1 µM
[11] = second compound 0.1 µM, first compound 3.16 µM
[12] = second compound 0.1 µM, first compound 10 µM
[13] = second compound 0.316 µM, first compound 0.0316 µM
[14] = second compound 0.316 µM, first compound 0.1 µM
[15] = second compound 0.316 µM, first compound 0.316 µM
[16] = second compound 0.316 µM, first compound 1 µM
[17] = second compound 0.316 µM, first compound 3.16 µM
[18] = second compound 0.316 µM, first compound 10 µM
[19] = second compound 1 µM, first compound 0.0316 µM
[20] = second compound 1 µM, first compound 0.1 µM
[21] = second compound 1 µM, first compound 0.316 µM
[22] = second compound 1 µM, first compound 1 µM
[23] = second compound 1 µM, first compound 3.16 µM
[24] = second compound 1 µM, first compound 10 µM
[25] = second compound 3.16 µM, first compound 0.0316 µM
[26] = second compound 3.16 µM, first compound 0.1 µM
[27] = second compound 3.16 µM, first compound 0.316 µM
[28] = second compound 3.16 µM, first compound 1 µM
[29] = second compound 3.16 µM, first compound 3.16 µM
[30] = second compound 3.16 µM, first compound 10 µM
[31] = second compound 10 µM, first compound 0.0316 µM
[32] = second compound 10 µM, first compound 0.1 µM
[33] = second compound 10 µM, first compound 0.316 µM
[34] = second compound 10 µM, first compound 1 µM
[35] = second compound 10 µM, first compound 3.16 µM
[36] = second compound 10 µM, first compound 10 µM
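Further: spheroids exposed to drugs for 7 days.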
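Wherever viability, T/C is given: 100% = DMSO vehicle treated spheroids.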

CC1COCCN1c1cc(C2(O)CC3CCC(C2)O3)c2cnn(-c3ccn[nH]3)c2n1 (stereo not drawn) + COC1C(OC(N)=O)C(O)C(Oc2ccc3c(O)c(NC(=O)c4ccc(O)c(CC=C(C)C)c4)c(=O)oc3c2C)OC1(C)C
< 0.0316 µM: IC50 (second compound 3.16 µM)
0.0445 µM: IC50 (second compound 10 µM)
0.0366 µM: IC50 (second compound 0.0316 µM)
active: viability, T/C [6] 6.6% | viability, T/C [12] 6.15% | viability, T/C [29] 8.1% | viability, T/C [30] 4.51% | viability, T/C [36] 5.9%
0.0505 µM: IC50 (second compound 0.1 µM)
inactive: viability, T/C [1] 52.4% | viability, T/C [2] 39.7% | viability, T/C [3] 17.2% | viability, T/C [4] 25.7% | viability, T/C [5] 12.7% | viability, T/C [7] 61.9% | viability, T/C [8] 32.1% | viability, T/C [9] 19.1% | viability, T/C [10] 17.5% | viability, T/C [11] 11.9% | viability, T/C [13] 52.1% | viability, T/C [14] 29.5% | viability, T/C [15] 19.2% | viability, T/C [16] 16.5% | viability, T/C [17] 14.3% | viability, T/C [18] 6.89% | viability, T/C [19] 79.2% | viability, T/C [20] 30.6% | viability, T/C [21] 25.5% | viability, T/C [22] 20.1% | viability, T/C [23] 14.2% | viability, T/C [24] 5.41% | viability, T/C [25] 46.6% | viability, T/C [26] 25.5% | viability, T/C [27] 23.7% | viability, T/C [28] 18.9% | viability, T/C [31] 56.8% | viability, T/C [32] 35.9% | viability, T/C [33] 27.6% | viability, T/C [34] 22.5% | viability, T/C [35] 15.3%
0.034 µM: IC50 (second compound 0.316 µM)
0.0681 µM: IC50 (second compound 1 µM)

CCCS(=O)(=O)Nc1ccc(F)c(C(=O)c2c[nH]c3ncc(-c4ccc(Cl)cc4)cc23)c1F + Cc1cccc(N(C)C(=O)C2C(O)CCN2c2nc(C)cc(C(F)(F)F)c2C#N)c1
6.51 µM: IC50 (second compound 0.316 µM)
6.02 µM: IC50 (second compound 3.16 µM)
inactive: viability, T/C [1] 67.5% | viability, T/C [2] 102% | viability, T/C [3] 94.3% | viability, T/C [4] 81.1% | viability, T/C [5] 85.7% | viability, T/C [6] 27.1% | viability, T/C [7] 91.3% | viability, T/C [8] 110% | viability, T/C [9] 67.4% | viability, T/C [10] 115% | viability, T/C [11] 88.2% | viability, T/C [12] 22.4% | viability, T/C [13] 78.7% | viability, T/C [14] 101% | viability, T/C [15] 95% | viability, T/C [16] 104% | viability, T/C [17] 99.3% | viability, T/C [18] 22.9% | viability, T/C [19] 64.8% | viability, T/C [20] 71.4% | viability, T/C [21] 81.6% | viability, T/C [22] 93% | viability, T/C [23] 63.7% | viability, T/C [24] 20.9% | viability, T/C [25] 103% | viability, T/C [26] 76.3% | viability, T/C [27] 97.3% | viability, T/C [28] 84.9% | viability, T/C [29] 95.3% | viability, T/C [30] 17.4% | viability, T/C [31] 88.4% | viability, T/C [32] 84.6% | viability, T/C [33] 112% | viability, T/C [34] 95.6% | viability, T/C [35] 80.9% | viability, T/C [36] 17.1%
5.54 µM: IC50 (second compound 10 µM)
4.95 µM: IC50 (second compound 1 µM)
6.38 µM: IC50 (second compound 0.0316 µM)
6.17 µM: IC50 (second compound 0.1 µM)

CCc1c2c(nc3ccc(O)cc13)-c1cc3c(c(=O)n1C2)COC(=O)[C@]3(O)CC + Cc1cccc(N(C)C(=O)C2C(O)CCN2c2nc(C)cc(C(F)(F)F)c2C#N)c1
< 0.00316 µM: IC50 (second compound 0.0316 µM) | IC50 (second compound 0.1 µM) | IC50 (second compound 0.316 µM) | IC50 (second compound 1 µM) | IC50 (second compound 3.16 µM) | IC50 (second compound 10 µM)
inactive: viability, T/C (second compound 0.0316 µM, first compound 0.00316 µM) 17.5% | viability, T/C (second compound 0.0316 µM, first compound 0.01 µM) 10.9% | viability, T/C (second compound 0.1 µM, first compound 0.00316 µM) 18.9% | viability, T/C (second compound 0.1 µM, first compound 0.01 µM) 10% | viability, T/C (second compound 0.316 µM, first compound 0.00316 µM) 18.6% | viability, T/C (second compound 1 µM, first compound 0.00316 µM) 18.7% | viability, T/C (second compound 1 µM, first compound 0.01 µM) 8.88% | viability, T/C (second compound 3.16 µM, first compound 0.00316 µM) 26.8% | viability, T/C (second compound 3.16 µM, first compound 0.01 µM) 12% | viability, T/C (second compound 10 µM, first compound 0.00316 µM) 17.9%
active: viability, T/C [1] 5% | viability, T/C [2] 5.25% | viability, T/C [3] 2.7% | viability, T/C [4] 1.11% | viability, T/C [7] 7.4% | viability, T/C [8] 5.26% | viability, T/C [9] 3.12% | viability, T/C [10] 0.8% | viability, T/C (second compound 0.316 µM, first compound 0.01 µM) 8.02% | viability, T/C [13] 5.77% | viability, T/C [14] 4.13% | viability, T/C [15] 4.1% | viability, T/C [16] 1.27% | viability, T/C [19] 5.58% | viability, T/C [20] 7.75% | viability, T/C [21] 3.43% | viability, T/C [22] 1.3% | viability, T/C [25] 8.11% | viability, T/C [26] 5.61% | viability, T/C [27] 2.9% | viability, T/C [28] 0.8% | viability, T/C (second compound 10 µM, first compound 0.01 µM) 9.1% | viability, T/C [31] 5.89% | viability, T/C [32] 4% | viability, T/C [33] 2.6% | viability, T/C [34] 0.66%

C=CC(=O)N1CCN(c2nc(=O)n(-c3c(C)ccnc3C(C)C)c3nc(-c4c(O)cccc4F)c(F)cc23)C(C)C1 (stereo not drawn) + Nc1ccc(C#CCN(C(=O)Cc2ncc(C(F)(F)F)cc2C(F)(F)F)c2ccc(F)cc2)nn1
inactive: viability, T/C [1] 92.1% | viability, T/C [2] 94.9% | viability, T/C [3] 73.3% | viability, T/C [4] 119% | viability, T/C [5] 130% | viability, T/C [6] 86.9% | viability, T/C [7] 102% | viability, T/C [8] 108% | viability, T/C [9] 75.2% | viability, T/C [10] 119% | viability, T/C [11] 74.6% | viability, T/C [12] 70.7% | viability, T/C [13] 104% | viability, T/C [14] 52.8% | viability, T/C [15] 112% | viability, T/C [16] 110% | viability, T/C [17] 103% | viability, T/C [18] 73.7% | viability, T/C [19] 94.2% | viability, T/C [20] 125% | viability, T/C [21] 108% | viability, T/C [22] 102% | viability, T/C [23] 130% | viability, T/C [24] 122% | viability, T/C [25] 80.7% | viability, T/C [26] 112% | viability, T/C [27] 83.8% | viability, T/C [28] 119% | viability, T/C [29] 118% | viability, T/C [30] 98.4% | viability, T/C [31] 110% | viability, T/C [32] 117% | viability, T/C [33] 110% | viability, T/C [34] 105% | viability, T/C [35] 120% | viability, T/C [36] 116%
> 10 µM: IC50 (second compound 0.0316 µM) | IC50 (second compound 0.1 µM) | IC50 (second compound 0.316 µM) | IC50 (second compound 1 µM) | IC50 (second compound 3.16 µM) | IC50 (second compound 10 µM)
